In US6908935B2, “Calcium receptor modulating agents” (Amgen Inc., priority 2002, dated 2005):

Each compound was assayed against T1, human parathyroid cell Ca^2+ receptor (hPCaR) (Homo sapiens, UniProt P41180) (assay: [Ca2+]i measurement with fluo-3 in HEK 293 4.0-7 cells stably transfected with hPCaR). Details: fluo-3 fluorescence (485/530 nm), effect on [Ca^2+]i.
T1 construct: expressed in transfected cells
T1 sequence (P41180 20-1078): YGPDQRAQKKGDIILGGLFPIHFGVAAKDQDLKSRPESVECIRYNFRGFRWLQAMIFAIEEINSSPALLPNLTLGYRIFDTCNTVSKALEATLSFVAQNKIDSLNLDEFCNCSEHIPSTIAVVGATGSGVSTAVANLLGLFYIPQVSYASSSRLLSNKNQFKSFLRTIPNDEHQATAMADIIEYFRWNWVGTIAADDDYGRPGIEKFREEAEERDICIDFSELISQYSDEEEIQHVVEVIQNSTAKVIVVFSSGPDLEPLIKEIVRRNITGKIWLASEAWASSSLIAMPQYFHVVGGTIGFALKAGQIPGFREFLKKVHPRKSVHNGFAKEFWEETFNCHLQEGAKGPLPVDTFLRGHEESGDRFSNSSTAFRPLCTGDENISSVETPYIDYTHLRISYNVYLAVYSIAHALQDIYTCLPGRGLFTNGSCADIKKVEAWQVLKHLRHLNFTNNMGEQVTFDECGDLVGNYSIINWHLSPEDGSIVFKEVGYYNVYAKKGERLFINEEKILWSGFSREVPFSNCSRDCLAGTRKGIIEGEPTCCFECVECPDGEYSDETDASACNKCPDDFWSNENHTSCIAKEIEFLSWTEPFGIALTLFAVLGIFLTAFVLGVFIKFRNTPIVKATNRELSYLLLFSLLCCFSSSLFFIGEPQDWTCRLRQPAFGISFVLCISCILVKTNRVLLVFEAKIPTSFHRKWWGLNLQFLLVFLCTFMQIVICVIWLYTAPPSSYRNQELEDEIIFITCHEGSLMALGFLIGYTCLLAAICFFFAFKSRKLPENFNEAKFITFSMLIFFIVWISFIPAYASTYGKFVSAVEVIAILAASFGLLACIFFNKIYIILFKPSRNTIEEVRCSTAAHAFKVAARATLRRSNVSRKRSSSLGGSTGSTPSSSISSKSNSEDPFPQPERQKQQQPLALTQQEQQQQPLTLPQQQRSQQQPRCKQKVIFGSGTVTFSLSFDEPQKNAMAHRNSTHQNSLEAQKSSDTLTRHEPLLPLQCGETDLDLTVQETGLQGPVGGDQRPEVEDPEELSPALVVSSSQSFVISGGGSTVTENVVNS
Format: cell-based
Protocol: The activities of the compounds of the present invention on calcium receptors were measured. In one embodiment, the measurement was performed in accordance with the method described in Example 4 of Nemeth et al., PCT/US95/13704 (International Publication No. WO96/12697) herein incorporated by reference.
A 4.0-kb NotI-HindIII fragment of the human parathyroid cell Ca^2+ receptor (hPCaR) cDNA was subcloned into the mammalian expression vector pCEP4 (Invitrogen) containing the hygromycin-resistant gene as a selectable marker. This plasmid was transfected into HEK 293 cells by calcium phosphate precipitation. Transfected cells were grown in Dulbecco's modified Eagle's medium containing 10% fetal bovine serum and hygromycin (200 μg/mL). Hygromycin-resistant colonies were subcloned and assayed for hPCaR mRNA by solution hybridization using a ^32P-labeled RNA probe complementary to the (4.0 kb) hPCaR sequence (Garrett, et al., J. Biol. Chem. 270, 12919-12925 (1995)). Clone 7 was used to assess the effects of compounds on [Ca^2+]i. This stably transfected cell line is termed HEK 293 4.0-7. For measurements of [Ca^2+]i, the cells were recovered from tissue culture flasks by brief treatment with 0.02% EDTA and then washed and resuspended in PCB containing 1 mM CaCl2 and 0.1% Bovine Serum Albumin (“BSA”). The cells were loaded with fluo-3 by incubation for 30 min at 37° C., with parathyroid cell buffer (126 mM NaCl, 4 mM KCl, 1 mM MgSO4, 0.7 mM K2HPO/KH2PO4, 20 mM HEPES.NaOH (pH 7.45)) containing 0.5% BSA in lmM CaCl2 and 2 μM fluo-3 acetoxymethyl ester. The cells were subsequently washed, each test compound was added to the cells and the fluorescence was recorded by using excitation and emission wavelengths of 485 and 530 nm, respectively.
For COc1cccc([C@@H](C)NCc2ccc(OC)c(-c3ccc(OCC(F)(F)F)nc3)c2)c1 [(1R)-1-(3-(methyloxy)phenyl)-N-((4-(methyloxy)-3-(6-((2,2,2-trifluoroethyl)oxy)-3-pyridinyl)phenyl)methyl)ethanamine], the EC50 was ≤ 10 µM.
For C[C@@H](NCc1ccc(Cl)c(-c2ccc(OC(F)(F)F)cc2)c1)c1cccc2ccccc12 [(1R)-N-((6-chloro-4′-((trifluoromethyl)oxy)-1,1′-biphenyl-3-yl)methyl)-1-(1-naphthalenyl)ethanamine], the EC50 was ≤ 10 µM.
With COc1ccc(CN[C@H](C)c2cccc3ccccc23)cc1-c1ncccn1 [(1R)-N-((4-(methyloxy)-3-(2-pyrimidinyl)phenyl)methyl)-1-(1-naphthalenyl)ethanamine] the EC50 was ≤ 10 µM.
With COc1ccc(-c2cccc(CN[C@H](C)c3ccc(OC)cc3)c2)cc1 [(1R)-N-((4′-(methyloxy)-1,1′-biphenyl-3-yl)methyl)-1-(4-(methyloxy)phenyl)ethanamine] the EC50 was ≤ 10 µM.
With C[C@@H](NCc1ccc(N2CCCC2)cc1)c1ccccc1 [(1R)-1-phenyl-N-((4-(1-pyrrolidinyl)phenyl)methyl)ethanamine] the EC50 was ≤ 10 µM.
In the case of C[C@@H](NCc1ccc(OC(F)F)c(-c2cccnc2)c1)c1ccccc1 [(1R)-N-((4-((difluoromethyl)oxy)-3-(3-pyridinyl)phenyl)methyl)-1-phenylethanamine], the EC50 is reported as ≤ 10 µM.
For COc1ccc(CN[C@H](C)c2ccccc2)cc1-c1coc(C)n1 [(1R)-N-((3-(2-methyl-1,3-oxazol-4-yl)-4-(methyloxy)phenyl)methyl)-1-phenylethanamine], the EC50 was ≤ 10 µM.
COc1ccc(CN[C@H](C)c2ccccc2)cc1-c1cccnc1NCCCN1CCOCC1 [3-(2-(methyloxy)-5-((((1R)-1-phenylethyl)amino)methyl)phenyl)-N-(3-(4-morpholinyl)propyl)-2-pyridinamine] was tested, and the EC50 was ≤ 10 µM.
For COc1cccc([C@@H](C)NCc2ccc(OC)c(-c3cccc(C(F)(F)F)c3)c2)c1 [(1R)-1-(3-(methyloxy)phenyl)-N-((6-(methyloxy)-3′-(trifluoromethyl)-1,1′-biphenyl-3-yl)methyl)ethanamine], the EC50 was ≤ 10 µM.
With CCOc1ccc(-c2cc(CN[C@H](C)c3cccc4ccccc34)ccc2OC)cn1 [(1R)-N-((3-(6-(ethyloxy)-3-pyridinyl)-4-(methyloxy)phenyl)methyl)-1-(1-naphthalenyl)ethanamine] the EC50 was ≤ 10 µM.
COc1ccc([C@@H](C)NCc2cccc(-c3ccc(C)nc3)c2)cc1 [(1R)-1-(4-(methyloxy)phenyl)-N-((3-(6-methyl-3-yridinyl)phenyl)methyl)ethanamine] was tested, and the EC50 was ≤ 10 µM.
C[C@@H](NCc1ccc(I)c(-c2ccc(C(F)(F)F)cc2)c1)c1cccc2ccccc12 [(1R)-N-((6-iodo-4′-(trifluoromethyl)-1,1′-biphenyl-3-yl)methyl)-1-(1-naphthalenyl)ethanamine] was tested, and the EC50 was ≤ 10 µM.
In the case of COc1ccc(CN[C@H](C)c2ccc(C)cc2)cc1-c1ccsc1 [(1R)-N-((4-(methyloxy)-3-(3-thienyl)phenyl)methyl)-1-(4-methylphenyl)ethanamine], the EC50 is reported as ≤ 10 µM.
In the case of COc1ccc(CN[C@H](C)c2cccc3ccccc23)cc1-c1ccc(S(C)(=O)=O)cc1 [(1R)-N-((6-(methyloxy)-4′-(methylsulfonyl)-1,1′-biphenyl-3-yl)methyl)-1-(1-naphthalenyl)ethanamine], the EC50 is reported as ≤ 10 µM.
In the case of COc1ccc(CN[C@H](C)c2ccccc2)cc1-c1ccc(=O)n(C)c1 [1-methyl-5-(2-(methyloxy)-5-((((1R)-1-phenylethyl)amino)methyl)phenyl)-2(1H)-pyridinone], the EC50 is reported as ≤ 10 µM.
COc1ccc(CN[C@H](C)c2cccc3ccccc23)cc1-c1cccnc1 [(1R)-N-((4-(methyloxy)-3-(3-pyridinyl)phenyl)methyl)-1-(1-naphthalenyl)ethanamine] was tested, and the EC50 was ≤ 10 µM.
COc1ccc(CN[C@H](C)c2ccc(C)cc2)cc1-c1cnc(N)nc1 [5-(2-(methyloxy)-5-((((1R)-1-(4-methylphenyl)ethyl)amino)methyl)phenyl)-2-pyrimidinamine] was tested, and the EC50 was ≤ 10 µM.
In the case of COc1cccc([C@@H](C)NCc2cccc(-c3nccs3)c2)c1 [(1R)-1-(3-(methyloxy)phenyl)-N-((3-(1,3-thiazol-2-yl)phenyl)methyl)ethanamine], the EC50 is reported as ≤ 10 µM.
For COc1cccc([C@@H](C)NCc2ccc(OC)c(-c3ccc4oc(C)nc4c3)c2)c1, the EC50 was ≤ 10 µM.
For COc1ccc(CN[C@H](C)c2ccccc2)cc1-c1ccc(S(C)(=O)=O)cc1 [(1R)-N-((6-(methyloxy)-4′-(methylsulfonyl)-1,1′-biphenyl-3-yl)methyl)-1-phenylethanamine], the EC50 was ≤ 10 µM.
With COc1cccc([C@@H](C)NCc2ccc(OC)c(-c3cccc(OC(F)(F)F)c3)c2)c1 [(1R)-1-(3-(methyloxy)phenyl)-N-((6-(methyloxy)-3′-((trifluoromethyl)oxy)-1,1′-biphenyl-3-yl)methyl)ethanamine] the EC50 was ≤ 10 µM.
For COc1ccc(CN[C@H](C)c2cccc3ccccc23)cc1-c1cccc(C(N)=O)c1 [2′-(methyloxy)-5′-((((1R)-1-(1-naphthalenyl)ethyl)amino)methyl)-1,1′-biphenyl-3-carboxamide], the EC50 was ≤ 10 µM.
With COc1ccc(CN[C@H](C)c2ccccc2)cc1-c1cccc(C(F)(F)F)c1 [(1R)-N-((6-(methyloxy)-3′-(trifluoromethyl)-1,1′-biphenyl-3-yl)methyl)-1-phenylethanamine] the EC50 was ≤ 10 µM.
For COc1ccc(CN[C@H](C)c2ccccc2)cc1-c1ccc2nccn2c1 [(1R)-N-((3-imidazo[1,2-a]pyridin-6-yl-4-(methyloxy)phenyl)methyl)-1-phenylethanamine], the EC50 was ≤ 10 µM.
With COc1cccc([C@@H](C)NCc2ccc(OC)c(-c3ccc(=O)n(C)c3)c2)c1 [1-methyl-5-(2-(methyloxy)-5-((((1R)-1-(3-(methyloxy)phenyl)ethyl)amino)methyl)phenyl)-2(1H)-pyridinone] the EC50 was ≤ 10 µM.
CCOC(=O)N1CCC(c2cc(CN[C@H](C)c3cccc4ccccc34)ccc2OC)CC1 [ethyl 4-(2-(methyloxy)-5-((((1R)-1-(1-naphthalenyl)ethyl)amino)methyl)phenyl)-1-piperidinecarboxylate] was tested, and the EC50 was ≤ 10 µM.
For COc1ccc(-c2cc(CN[C@H](C)c3cccc(OC)c3)ccc2F)cc1 [(1R)-N-((6-fluoro-4′-(methyloxy)-1,1′-biphenyl-3-yl)methyl)-1-(3-(methyloxy)phenyl)ethanamine], the EC50 was ≤ 10 µM.
In the case of COc1ccc(CN[C@H](C)c2cccc3ccccc23)cc1-c1ccc2c(ccn2CC(N)=O)c1 [2-(5-(2-(methyloxy)-5-((((1R)-1-(1-naphthalenyl)ethyl)amino)methyl)phenyl)-1H-indol-1-yl)acetamide], the EC50 is reported as ≤ 10 µM.
With COc1ccc(CNC(C)c2ccc(F)cc2)cc1-c1ccc(C(F)(F)F)cc1 (stereo not shown) [1-(4-fluorophenyl)-N-((6-(methyloxy)-4′-(trifluoromethyl)-1,1′-biphenyl-3-yl)methyl)ethanamine] the EC50 was ≤ 10 µM.
In the case of COc1cccc(-c2cccc(CN[C@H](C)c3ccccc3)c2)c1 [(1R)-N-((3′-(methyloxy)-1,1′-biphenyl-3-yl)methyl)-1-phenylethanamine], the EC50 is reported as ≤ 10 µM.
In the case of COc1ccc(CN[C@H](C)c2cccc3ccccc23)cc1-c1cnc(OCC(F)(F)F)nc1 [(1R)-N-((4-(methyloxy)-3-(2-((2,2,2-trifluoroethyl)oxy)-5-pyrimidinyl)phenyl)methyl)-1-(1-naphthalenyl)ethanamine], the EC50 is reported as ≤ 10 µM.
